Calls of active or inactive are those of the source. The rule behind the calls is not given here.
Legend:
[1] = biological target: T1, E3 ubiquitin-protein ligase Mdm2 (Homo sapiens, UniProt Q00987); test: Inhibition of p53-HDM2 interaction at 50 ug/ml
Target sequence in this assay (Q00987 whole entry, looked up): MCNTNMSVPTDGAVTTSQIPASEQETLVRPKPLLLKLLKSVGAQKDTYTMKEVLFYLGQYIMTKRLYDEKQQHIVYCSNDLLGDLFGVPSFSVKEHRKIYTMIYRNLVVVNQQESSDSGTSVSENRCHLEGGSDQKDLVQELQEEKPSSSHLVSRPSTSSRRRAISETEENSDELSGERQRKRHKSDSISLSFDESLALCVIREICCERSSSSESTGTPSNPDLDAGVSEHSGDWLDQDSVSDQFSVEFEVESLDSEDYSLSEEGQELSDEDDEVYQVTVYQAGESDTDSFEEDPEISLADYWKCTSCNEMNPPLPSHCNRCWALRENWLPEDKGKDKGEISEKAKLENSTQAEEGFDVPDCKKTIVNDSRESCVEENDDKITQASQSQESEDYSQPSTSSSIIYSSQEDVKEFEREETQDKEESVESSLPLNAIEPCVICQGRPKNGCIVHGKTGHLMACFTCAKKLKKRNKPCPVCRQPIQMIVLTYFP

[2] = biological target: T1, E3 ubiquitin-protein ligase Mdm2; test: Inhibition of p53-HDM2 interaction
Target sequence in this assay (Q00987 whole entry): as the sequence (Q00987 whole entry, looked up) above

Structure (SMILES)	Activity [1]	IC50 [2] [µM]
O=C(O)CCC(=O)O	inactive	–
C=C(C(=O)O)C(CCCCCC)C(=O)O (stereo unspecified) [HEXYLITACONIC ACID]	–	233
C=C(CC(=O)O)C(=O)O	inactive	–
CCCCCCC(C(=O)OC)C(C)C(=O)O (stereo unspecified)	inactive	–
CCCCCCC(C(=O)O)C(C)C(=O)O (stereo unspecified)	inactive	–
C=C(C(=O)O)C(CCCCCC)C(=O)OC (stereo unspecified)	inactive	–

— ChEMBL document CHEMBL1148535, “Hexylitaconic acid: a new inhibitor of p53-HDM2 interaction isolated from a marine-derived fungus, Arthrinium sp” (Bioorg Med Chem Lett, 2006)
